Assay results from ChEMBL document CHEMBL4507319 (2021).
Calls of active or inactive are those of the source. The calls are words filed in the database; no cut-off is given here.

Experiments:
[1] = biological target: STE20-like serine/threonine-protein kinase (Homo sapiens) (UniProt Q9H2G2); experiment: SLK(h) Eurofins kinase panel; conditions: Compound concentration 1.0 uM
[2] = biological target: Fibroblast growth factor receptor 4 (Homo sapiens) (UniProt P22455); experiment: FGFR4(h) Eurofins kinase panel; conditions: Compound concentration 1.0 uM
[3] = biological target: Vascular endothelial growth factor receptor 2 (Homo sapiens) (UniProt P35968); experiment: KDR(h) Eurofins kinase panel; conditions: Compound concentration 1.0 uM
[4] = biological target: Serine/threonine-protein kinase 25 (Homo sapiens) (UniProt O00506); experiment: STK25(h) Eurofins kinase panel; conditions: Compound concentration 1.0 uM
[5] = biological target: Mitogen-activated protein kinase kinase kinase kinase 1 (Homo sapiens) (UniProt Q92918); experiment: HPK1(h) Eurofins kinase panel; conditions: Compound concentration 1.0 uM
[6] = biological target: T1, Ribosomal protein S6 kinase alpha-1 (Homo sapiens, UniProt Q15418); conditions: Compound concentration 1.0 uM
[7] = biological target: Vascular endothelial growth factor receptor 1 (Homo sapiens) (UniProt P17948); experiment: Flt1(h) Eurofins kinase panel; conditions: Compound concentration 1.0 uM
[8] = biological target: Serine/threonine-protein kinase/endoribonuclease IRE1 (Homo sapiens) (UniProt O75460); experiment: IRE1(h) Eurofins kinase panel; conditions: Compound concentration 1.0 uM
[9] = biological target: T2, cGMP-dependent protein kinase 2 (Homo sapiens) (UniProt Q13237); experiment: PRKG2(h) Eurofins kinase panel; conditions: Compound concentration 1.0 uM
T2 sequence (whole entry): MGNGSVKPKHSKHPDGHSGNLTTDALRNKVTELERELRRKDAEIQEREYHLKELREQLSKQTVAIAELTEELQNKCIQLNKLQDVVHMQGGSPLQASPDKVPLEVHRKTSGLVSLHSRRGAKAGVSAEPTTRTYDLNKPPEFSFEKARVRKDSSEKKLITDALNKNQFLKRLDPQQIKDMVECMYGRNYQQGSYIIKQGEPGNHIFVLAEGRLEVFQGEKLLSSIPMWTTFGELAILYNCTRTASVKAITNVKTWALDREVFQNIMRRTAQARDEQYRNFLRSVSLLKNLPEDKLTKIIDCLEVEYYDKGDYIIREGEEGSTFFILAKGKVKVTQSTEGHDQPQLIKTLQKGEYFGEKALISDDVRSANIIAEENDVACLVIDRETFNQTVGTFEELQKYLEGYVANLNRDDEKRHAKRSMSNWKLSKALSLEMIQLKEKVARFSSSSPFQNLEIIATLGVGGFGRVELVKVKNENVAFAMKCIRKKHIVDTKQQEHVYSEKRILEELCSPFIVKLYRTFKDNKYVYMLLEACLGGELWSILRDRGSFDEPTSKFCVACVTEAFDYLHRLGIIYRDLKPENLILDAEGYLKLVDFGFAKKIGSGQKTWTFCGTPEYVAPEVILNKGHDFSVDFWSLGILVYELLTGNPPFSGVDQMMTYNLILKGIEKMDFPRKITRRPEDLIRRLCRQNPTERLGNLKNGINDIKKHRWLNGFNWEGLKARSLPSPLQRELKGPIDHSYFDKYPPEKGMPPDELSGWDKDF

[10] = biological target: T1, Ribosomal protein S6 kinase alpha-1; experiment: Eurofins kinase panel (RPS6KA1); parameters: compound concentration 1 uM
[11] = biological target: Calcium/calmodulin-dependent protein kinase type II subunit beta (Homo sapiens) (UniProt Q13554); experiment: CaMKIIbeta(h) Eurofins kinase panel; conditions: Compound concentration 1.0 uM
[12] = biological target: Platelet-derived growth factor receptor alpha (Homo sapiens) (UniProt P16234); experiment: PDGFRalpha(h) Eurofins kinase panel; conditions: Compound concentration 1.0 uM
[13] = biological target: Serine/threonine-protein kinase pim-1 (Homo sapiens) (UniProt P11309); experiment: Pim-1(h) Eurofins kinase panel; conditions: Compound concentration 1.0 uM
CWR22R = experiment: 22Rv1 cell line Proliferation assay; type: functional, Homo sapiens; conditions: time 6 day
[14] = biological target: Tyrosine-protein kinase HCK (Homo sapiens) (UniProt P08631); experiment: Hck(h) activated Eurofins kinase panel; conditions: Compound concentration 1.0 uM
Homo sapiens = organism: Homo sapiens; experiment: CK2(h) Eurofins kinase panel; conditions: Compound concentration 1.0 uM
[15] = biological target: T3, Serine/threonine-protein kinase Sgk2 (Homo sapiens) (UniProt Q9HBY8); experiment: SGK2(h) Eurofins kinase panel; conditions: Compound concentration 1.0 uM
T3 sequence (whole entry): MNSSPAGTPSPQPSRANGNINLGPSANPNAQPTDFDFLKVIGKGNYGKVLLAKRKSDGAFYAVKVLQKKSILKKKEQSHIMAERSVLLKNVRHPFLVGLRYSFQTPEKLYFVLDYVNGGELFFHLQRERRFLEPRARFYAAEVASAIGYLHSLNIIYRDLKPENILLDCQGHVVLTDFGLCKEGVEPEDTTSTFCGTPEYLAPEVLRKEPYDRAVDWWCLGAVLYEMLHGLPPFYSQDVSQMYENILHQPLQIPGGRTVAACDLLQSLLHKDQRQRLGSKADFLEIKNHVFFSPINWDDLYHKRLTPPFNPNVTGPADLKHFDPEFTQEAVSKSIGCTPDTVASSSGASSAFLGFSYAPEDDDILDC

[16] = biological target: Mitogen-activated protein kinase kinase kinase kinase 5 (Homo sapiens) (UniProt Q9Y4K4); experiment: MAP4K5(h) Eurofins kinase panel; conditions: Compound concentration 1.0 uM
[17] = biological target: T4, Rhodopsin kinase GRK1 (Homo sapiens) (UniProt Q15835); experiment: GRK1(h) Eurofins kinase panel; conditions: Compound concentration 1.0 uM
T4 sequence (whole entry): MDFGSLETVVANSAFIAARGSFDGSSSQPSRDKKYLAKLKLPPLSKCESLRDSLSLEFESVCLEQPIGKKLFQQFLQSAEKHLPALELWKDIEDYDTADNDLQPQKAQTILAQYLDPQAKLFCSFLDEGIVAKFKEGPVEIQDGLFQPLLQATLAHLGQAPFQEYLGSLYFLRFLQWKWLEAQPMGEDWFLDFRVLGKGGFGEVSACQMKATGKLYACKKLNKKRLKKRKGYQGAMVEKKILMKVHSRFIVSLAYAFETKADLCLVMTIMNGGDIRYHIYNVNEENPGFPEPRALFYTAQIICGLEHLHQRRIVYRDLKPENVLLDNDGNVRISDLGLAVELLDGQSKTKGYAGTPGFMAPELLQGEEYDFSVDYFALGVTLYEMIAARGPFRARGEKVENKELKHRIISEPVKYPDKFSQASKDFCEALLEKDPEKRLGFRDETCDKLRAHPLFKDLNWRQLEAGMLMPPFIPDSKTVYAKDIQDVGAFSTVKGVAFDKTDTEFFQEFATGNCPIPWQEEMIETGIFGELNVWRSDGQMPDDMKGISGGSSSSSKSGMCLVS

T1 sequence (Q15418 whole entry): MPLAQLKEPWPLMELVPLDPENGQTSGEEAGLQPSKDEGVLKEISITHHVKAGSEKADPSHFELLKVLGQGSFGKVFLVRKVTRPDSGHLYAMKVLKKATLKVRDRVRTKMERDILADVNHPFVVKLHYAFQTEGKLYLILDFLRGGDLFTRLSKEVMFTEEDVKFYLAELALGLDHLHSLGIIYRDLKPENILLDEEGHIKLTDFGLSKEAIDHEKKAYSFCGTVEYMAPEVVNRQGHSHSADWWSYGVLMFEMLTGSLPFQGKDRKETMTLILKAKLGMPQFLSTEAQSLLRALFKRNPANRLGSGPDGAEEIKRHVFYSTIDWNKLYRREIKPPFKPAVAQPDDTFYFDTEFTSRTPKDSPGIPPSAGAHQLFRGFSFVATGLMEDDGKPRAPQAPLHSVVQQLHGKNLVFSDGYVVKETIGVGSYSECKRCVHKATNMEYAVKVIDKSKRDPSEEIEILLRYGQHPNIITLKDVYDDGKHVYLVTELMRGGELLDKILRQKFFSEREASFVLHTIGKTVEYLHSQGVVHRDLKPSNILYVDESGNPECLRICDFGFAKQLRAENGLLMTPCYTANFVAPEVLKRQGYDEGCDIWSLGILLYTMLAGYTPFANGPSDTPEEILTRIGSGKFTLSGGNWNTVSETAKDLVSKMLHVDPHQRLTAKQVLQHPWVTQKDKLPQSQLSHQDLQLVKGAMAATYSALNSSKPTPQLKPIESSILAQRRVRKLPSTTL
Chain of Calcium/calmodulin-dependent protein kinase type II subunit beta (Homo sapiens) (Q13554 whole entry): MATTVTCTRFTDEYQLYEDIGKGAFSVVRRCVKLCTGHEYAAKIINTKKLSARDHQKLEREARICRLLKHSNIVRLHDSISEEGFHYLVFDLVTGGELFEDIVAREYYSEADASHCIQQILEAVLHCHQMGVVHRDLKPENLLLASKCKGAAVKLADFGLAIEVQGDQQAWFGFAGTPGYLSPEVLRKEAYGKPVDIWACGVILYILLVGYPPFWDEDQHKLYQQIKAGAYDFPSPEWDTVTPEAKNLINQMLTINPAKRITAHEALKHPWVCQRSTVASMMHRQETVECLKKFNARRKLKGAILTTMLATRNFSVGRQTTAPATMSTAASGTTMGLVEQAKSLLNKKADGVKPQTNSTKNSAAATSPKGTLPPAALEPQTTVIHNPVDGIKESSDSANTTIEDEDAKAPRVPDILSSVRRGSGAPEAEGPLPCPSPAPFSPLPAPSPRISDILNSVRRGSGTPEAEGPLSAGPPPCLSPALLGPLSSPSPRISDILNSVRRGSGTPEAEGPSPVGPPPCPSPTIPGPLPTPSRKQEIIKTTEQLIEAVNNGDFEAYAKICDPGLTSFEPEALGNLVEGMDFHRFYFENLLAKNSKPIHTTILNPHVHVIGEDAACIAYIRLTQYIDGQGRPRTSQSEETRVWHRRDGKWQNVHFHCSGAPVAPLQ
Chain of Serine/threonine-protein kinase/endoribonuclease IRE1 (Homo sapiens) (O75460 19-977 limits assumed): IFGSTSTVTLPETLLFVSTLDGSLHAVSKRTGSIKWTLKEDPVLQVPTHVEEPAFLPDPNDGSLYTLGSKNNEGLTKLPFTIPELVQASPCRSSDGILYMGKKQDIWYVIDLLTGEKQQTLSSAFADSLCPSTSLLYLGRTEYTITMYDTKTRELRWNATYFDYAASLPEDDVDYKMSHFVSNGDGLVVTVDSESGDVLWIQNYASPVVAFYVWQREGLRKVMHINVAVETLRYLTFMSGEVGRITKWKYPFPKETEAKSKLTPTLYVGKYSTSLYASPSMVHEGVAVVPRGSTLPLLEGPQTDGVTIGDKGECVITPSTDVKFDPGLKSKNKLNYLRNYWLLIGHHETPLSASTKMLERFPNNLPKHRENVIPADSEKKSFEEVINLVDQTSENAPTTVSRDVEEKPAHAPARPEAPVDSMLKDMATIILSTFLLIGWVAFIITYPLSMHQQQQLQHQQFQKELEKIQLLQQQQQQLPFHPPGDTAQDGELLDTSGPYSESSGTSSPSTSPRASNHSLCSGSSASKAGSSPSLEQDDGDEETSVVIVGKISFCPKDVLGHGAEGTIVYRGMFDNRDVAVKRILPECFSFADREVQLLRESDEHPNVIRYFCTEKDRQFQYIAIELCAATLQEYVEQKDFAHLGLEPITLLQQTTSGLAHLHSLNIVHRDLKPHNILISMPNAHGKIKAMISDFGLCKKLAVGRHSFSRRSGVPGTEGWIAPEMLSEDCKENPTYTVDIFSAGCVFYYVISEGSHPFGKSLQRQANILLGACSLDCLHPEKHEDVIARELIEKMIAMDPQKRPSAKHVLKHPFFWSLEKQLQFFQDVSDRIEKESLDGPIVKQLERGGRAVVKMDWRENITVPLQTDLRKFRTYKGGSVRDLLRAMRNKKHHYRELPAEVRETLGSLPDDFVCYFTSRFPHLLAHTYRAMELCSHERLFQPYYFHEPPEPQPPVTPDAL
Chain of Serine/threonine-protein kinase 25 (Homo sapiens) (O00506 whole entry, looked up): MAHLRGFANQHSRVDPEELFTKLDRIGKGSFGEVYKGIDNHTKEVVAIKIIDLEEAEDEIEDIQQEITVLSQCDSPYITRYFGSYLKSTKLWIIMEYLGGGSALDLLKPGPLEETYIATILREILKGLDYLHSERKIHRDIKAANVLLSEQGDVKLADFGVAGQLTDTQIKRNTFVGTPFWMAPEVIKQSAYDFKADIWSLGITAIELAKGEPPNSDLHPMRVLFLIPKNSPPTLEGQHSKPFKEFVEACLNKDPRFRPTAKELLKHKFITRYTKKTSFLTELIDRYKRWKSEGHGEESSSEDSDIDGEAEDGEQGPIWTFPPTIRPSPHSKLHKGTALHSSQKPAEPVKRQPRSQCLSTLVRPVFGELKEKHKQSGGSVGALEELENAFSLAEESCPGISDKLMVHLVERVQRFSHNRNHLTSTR
Chain of Serine/threonine-protein kinase pim-1 (Homo sapiens) (P11309 whole entry, looked up): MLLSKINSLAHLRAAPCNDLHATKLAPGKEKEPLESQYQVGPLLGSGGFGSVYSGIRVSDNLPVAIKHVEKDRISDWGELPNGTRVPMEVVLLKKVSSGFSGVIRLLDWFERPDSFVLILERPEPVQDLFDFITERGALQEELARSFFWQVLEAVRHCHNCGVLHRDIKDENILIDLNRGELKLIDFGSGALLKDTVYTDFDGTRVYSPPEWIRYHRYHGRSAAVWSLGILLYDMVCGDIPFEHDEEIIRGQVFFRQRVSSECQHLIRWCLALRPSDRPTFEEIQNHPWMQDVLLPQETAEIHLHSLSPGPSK
Chain of Fibroblast growth factor receptor 4 (Homo sapiens) (P22455 22-802 limits assumed): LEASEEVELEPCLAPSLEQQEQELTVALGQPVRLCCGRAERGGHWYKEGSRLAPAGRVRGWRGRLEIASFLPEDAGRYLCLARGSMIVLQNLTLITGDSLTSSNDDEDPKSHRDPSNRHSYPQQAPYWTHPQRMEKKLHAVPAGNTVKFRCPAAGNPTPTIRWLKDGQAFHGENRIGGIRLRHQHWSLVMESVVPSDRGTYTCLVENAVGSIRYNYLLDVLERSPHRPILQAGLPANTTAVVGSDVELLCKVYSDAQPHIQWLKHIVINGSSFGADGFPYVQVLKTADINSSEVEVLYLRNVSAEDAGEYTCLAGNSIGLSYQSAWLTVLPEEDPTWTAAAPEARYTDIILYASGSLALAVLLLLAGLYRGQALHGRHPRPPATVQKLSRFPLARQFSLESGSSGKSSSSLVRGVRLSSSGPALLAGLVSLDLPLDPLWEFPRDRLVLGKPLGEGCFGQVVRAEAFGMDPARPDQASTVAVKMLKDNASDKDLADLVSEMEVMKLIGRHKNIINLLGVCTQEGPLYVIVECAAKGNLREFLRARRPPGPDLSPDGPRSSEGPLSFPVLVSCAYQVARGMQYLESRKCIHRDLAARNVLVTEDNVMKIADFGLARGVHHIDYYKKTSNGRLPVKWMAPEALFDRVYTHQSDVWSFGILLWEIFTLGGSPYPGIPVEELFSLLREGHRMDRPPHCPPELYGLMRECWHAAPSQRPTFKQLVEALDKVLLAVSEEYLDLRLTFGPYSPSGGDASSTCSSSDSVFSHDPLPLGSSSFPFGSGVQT
Chain of Mitogen-activated protein kinase kinase kinase kinase 1 (Homo sapiens) (Q92918 whole entry, looked up): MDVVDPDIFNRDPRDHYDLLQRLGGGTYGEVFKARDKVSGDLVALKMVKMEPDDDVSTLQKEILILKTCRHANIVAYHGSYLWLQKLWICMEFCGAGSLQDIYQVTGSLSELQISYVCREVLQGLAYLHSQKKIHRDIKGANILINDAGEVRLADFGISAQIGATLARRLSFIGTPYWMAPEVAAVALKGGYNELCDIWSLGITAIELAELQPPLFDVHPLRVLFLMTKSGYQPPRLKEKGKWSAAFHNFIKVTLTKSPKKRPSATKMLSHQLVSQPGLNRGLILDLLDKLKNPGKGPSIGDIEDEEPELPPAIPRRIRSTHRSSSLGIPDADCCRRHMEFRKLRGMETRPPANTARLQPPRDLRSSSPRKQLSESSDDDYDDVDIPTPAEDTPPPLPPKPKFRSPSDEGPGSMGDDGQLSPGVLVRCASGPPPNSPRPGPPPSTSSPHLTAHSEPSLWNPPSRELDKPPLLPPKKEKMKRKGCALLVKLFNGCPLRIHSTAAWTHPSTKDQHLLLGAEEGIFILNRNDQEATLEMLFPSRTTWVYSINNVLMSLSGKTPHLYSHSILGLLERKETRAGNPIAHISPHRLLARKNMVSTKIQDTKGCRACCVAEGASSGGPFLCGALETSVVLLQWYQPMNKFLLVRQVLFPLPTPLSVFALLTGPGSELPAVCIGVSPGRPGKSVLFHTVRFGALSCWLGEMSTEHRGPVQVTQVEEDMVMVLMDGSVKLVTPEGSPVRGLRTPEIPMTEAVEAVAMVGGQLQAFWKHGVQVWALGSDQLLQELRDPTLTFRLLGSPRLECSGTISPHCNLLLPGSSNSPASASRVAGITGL

For CCc1ccccc1C(=O)Nc1n[nH]c2c(C)c(F)c(C3C(C#N)=C(C)N(C)C(C)=C3C#N)cc12 [BAY-3827], the % residual kinase activity [1] was 101%, the % residual kinase activity [2] was 99% and the % residual kinase activity [3] was 90%. For the same compound, the % residual kinase activity [4] was 43%, the % residual kinase activity [5] was 57% and the % residual kinase activity [6] was 7%. The % residual kinase activity [7] was 96%, the % residual kinase activity [8] was 104% and the % residual kinase activity [9] was 79%. For the same compound, the IC50 [10] was 9.1 nM (active), the % residual kinase activity [11] was 100% and the % residual kinase activity [12] was 102%. The % residual kinase activity [13] was 119%, the “Cell Proliferation IC50” value (CWR22R) was 5550 nM and the % residual kinase activity [14] was 109%. It also gave a % residual kinase activity (Homo sapiens) of 94%, a % residual kinase activity [15] of 70% and a % residual kinase activity [16] of 95%. It also gave a % residual kinase activity [17] of 72%.
